The record followed here is patent US7041662B2, “Substituted benzo [b] azepin-2-one compounds” (Grunenthal GmbH, priority 2002, dated 2006).

This test relates to phenylquinone-induced writhing reactions. The test is described as follows: phenylquinone-induced writhing in mice. It counts as in vivo. Conditions: male NMRI mice, phenylquinone i.p. 10 minutes after compound, writhing counted 5-20 minutes after phenylquinone. Here is the method: The investigation into analgesic efficacy was performed by phenylquinone-induced writhing in mice (modified after: I. C. Hendershot, J. Forsaith, J. Pharmacol. Exp. There. 125, 237–240 (1959)). The corresponding literature description is hereby introduced as a reference and is deemed to be part of the disclosure.
Male NMRI mice weighing from 25 to 30 g were used for this purpose. Groups of 10 animals per substance dose received, 10 minutes after intravenous administration of the compounds tested, 0.3 ml/mouse of a 0.02% aqueous solution of phenylquinone (phenylbenzoquinone, Sigma, Deisenhofen; solution prepared with addition of 5% of ethanol and stored in a water bath at 45° C.) administered intraperitoneally. The animals were placed individually in observation cages. A push button counter was used to record the number of pain-induced stretching movements (writhing reactions=straightening of the torso with stretching of the rear extremities) for 5–20 minutes after phenylquinone administration. The control was provided by animals who received only physiological common salt solution.
The compounds were tested at the standard dosage of 10 mg/kg. Inhibition of the writhing reactions by a substance was calculated according to the following formula: […]
The in-depth investigation into analgesic efficacy was performed using phenylquinone-induced writhing in mice, as described above.
In general terms: In writhing tests, fewer writhes than in controls are read as antinociception.

Take `COc1cccc(C2(O)CCC(OC(=O)CC3=CCC(=O)N(C)c4cc(Cl)ccc43)CC2CN(C)C)c1` (stereo not drawn) [Example 4, 2′-(8-chloro-1-methyl-2-oxo-2,3-dihydro-1H-benzo[b]azepin-5-yl) acetic acid [3″-(N,N-dimethylaminomethyl)-4″-hydroxy-4″-(m-methoxyphenyl)cyclohexyl]ester]: the “% inhibition of writhing reactions 10 mg/kg i.v.” value is given as 39%.
For `COc1cccc(C2(O)CCC(OC(=O)CC3=CCC(=O)Nc4cc(Cl)ccc43)CC2CN(C)C)c1` (stereo not drawn) [Example 5, 2′-(8-chloro-2-oxo-2,3-dihydro-1H-benzo[b]azepin-5-yl) acetic acid [3″-(N,N-dimethylaminomethyl)-4″-hydroxy-4″-(m-methoxyphenyl)cyclohexyl]ester] the value was 63%; for `COc1cccc(C2(O)CCC(NC(=O)CC3=CCC(=O)N(C)c4cc(Cl)ccc43)CC2CN(C)C)c1` (stereo not drawn) [Example 6, 2′-(8-chloro-1-methyl-2-oxo-2,3-dihydro-1H-benzo[b]azepin-5-yl)-N-[3″-(N,N-dimethylaminomethyl)-4″-hydroxy-4″-(m-methoxyphenyl)cyclohexyl]acetamide], 25%.
